According to ChEMBL document CHEMBL2218064, “Structure-activity relationship data for chemical series of antagonists of the P2X7 receptor (Supplementary Bioactivity Data for publication CHEMBL1157114)”:

Molecular target: T1, P2X purinoceptor 7 (Homo sapiens, UniProt Q99572)
T1 sequence (Q99572 whole entry): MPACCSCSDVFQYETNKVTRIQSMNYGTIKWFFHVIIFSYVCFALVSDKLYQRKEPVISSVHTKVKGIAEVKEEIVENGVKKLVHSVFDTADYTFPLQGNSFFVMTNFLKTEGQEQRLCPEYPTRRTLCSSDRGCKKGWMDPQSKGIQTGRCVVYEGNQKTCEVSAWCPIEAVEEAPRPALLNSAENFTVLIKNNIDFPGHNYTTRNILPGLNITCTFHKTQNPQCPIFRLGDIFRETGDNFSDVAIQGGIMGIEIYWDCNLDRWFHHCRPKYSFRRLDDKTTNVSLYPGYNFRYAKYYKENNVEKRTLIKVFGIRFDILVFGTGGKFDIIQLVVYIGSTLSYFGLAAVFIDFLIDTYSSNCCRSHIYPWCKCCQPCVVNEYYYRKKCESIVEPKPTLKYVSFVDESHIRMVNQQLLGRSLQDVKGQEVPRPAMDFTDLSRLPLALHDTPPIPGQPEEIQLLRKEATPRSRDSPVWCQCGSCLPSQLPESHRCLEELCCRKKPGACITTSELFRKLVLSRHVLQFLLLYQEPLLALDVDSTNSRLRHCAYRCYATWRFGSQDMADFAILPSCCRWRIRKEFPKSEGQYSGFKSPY
Assay: SUPPLEMENTARY: Inhibition of human P2X7 receptor assessed as inhibition of ethidium bromide accumulation. Same assay as CHEMBL1103860

Q: How did the IC50 turn out when `CN1CC(C(=O)NCc2cccc(C(F)(F)F)c2Cl)CC1=O` (configuration not stated) was run?
A: 0.0631 µM

Q: Which IC50 does the source give for `O=C(NCc1cccc(C(F)(F)F)c1Cl)C1COCC(=O)N1Cc1ccccc1` (configuration not stated) here?
A: 0.251 µM

Q: How did the IC50 turn out when `O=C(NCc1ccc(Cl)cc1Cl)C1COCC(=O)N1Cc1ccccc1` (configuration not stated) was run?
A: 0.501 µM

Q: For `O=C(NCc1ccc(F)cc1Cl)C1COCC(=O)N1Cc1ccccc1` (configuration not stated), which IC50 is on record?
A: 0.501 µM

Q: `CCN1C(=O)CC[C@H]1C(=O)NCc1cccc(C)c1C` was tested. Which IC50 did it give?
A: 0.1 µM

Q: `CN1C(=O)CC[C@H]1C(=O)NCc1ccc(F)c(Cl)c1Cl` was tested. Which IC50 did it give?
A: 0.0126 µM

Q: With `CC(C)N1C(=O)CC[C@H]1C(=O)NCc1ccc(F)c(Cl)c1Cl` as the molecule, how does the IC50 read?
A: 0.00501 µM

Q: `Cc1c(Cl)cccc1CNC(=O)[C@@H]1CCC(=O)N1C(C)C` was tested. Which IC50 did it give?
A: 0.0158 µM

Q: Which IC50 does the source give for `CC(C)N1C(=O)CC[C@H]1C(=O)NCc1cccc(C(F)(F)F)c1Cl` here?
A: 0.002 µM

Q: How did the IC50 turn out when `Cc1c(CNC(=O)[C@@H]2CCC(=O)N2C(C)C)cccc1C(F)(F)F` was run?
A: 0.00398 µM

Q: `CC(C)N1C(=O)CC[C@H]1C(=O)NCc1cccc(Cl)c1Cl` was tested. Which IC50 did it give?
A: 0.02 µM

Q: How did the IC50 turn out when `CC(C)N1C(=O)CC[C@H]1C(=O)NCc1ccc(F)c(F)c1Cl` was run?
A: 0.02 µM

Q: How did the IC50 turn out when `CC(C)N1C(=O)CC[C@H]1C(=O)NCc1ccc(Cl)cc1Cl` was run?
A: 0.00794 µM

Q: Which IC50 does the source give for `CN1CC(C(=O)NCc2ccc(Cl)cc2Cl)CC1=O` (configuration not stated) here?
A: 0.158 µM

Q: For `CCN1CC(C(=O)NCc2ccc(Cl)cc2Cl)CC1=O` (configuration not stated), which IC50 is on record?
A: 0.126 µM

Q: `CCN1CC(C(=O)NCc2cccc(C(F)(F)F)c2Cl)CC1=O` (configuration not stated) was tested. Which IC50 did it give?
A: 0.0501 µM

Q: For `CC(C)CN1CC(C(=O)NCc2cccc(C(F)(F)F)c2Cl)CC1=O` (configuration not stated), which IC50 is on record?
A: 0.0631 µM

Q: Which IC50 does the source give for `O=C(NCc1ccc(Cl)cc1Cl)C1CC(=O)N(C2CC2)C1` (configuration not stated) here?
A: 0.126 µM

Q: `O=C(NCc1cccc(C(F)(F)F)c1Cl)C1CC(=O)N(C2CC2)C1` (configuration not stated) was tested. Which IC50 did it give?
A: 0.0316 µM

Q: For `CN1C(=O)OC[C@@H]1C(=O)NCc1cccc(C(F)(F)F)c1Cl`, which IC50 is on record?
A: 0.0501 µM

Q: For `CCN1[C@H](C(=O)NCc2ccc(Cl)cc2Cl)CCCS1(=O)=O`, which IC50 is on record?
A: 0.2 µM

Q: With `CCN1[C@H](C(=O)NCc2ccc(F)cc2Cl)CCCS1(=O)=O` as the molecule, how does the IC50 read?
A: 0.631 µM

Q: How did the IC50 turn out when `CN1[C@H](C(=O)NCc2ccc(Cl)cc2Cl)CCCS1(=O)=O` was run?
A: 0.251 µM

Q: With `O=C(NCc1cccc(C(F)(F)F)c1Cl)C1CC(=O)N(Cc2ccccc2)C1` (configuration not stated) as the molecule, how does the IC50 read?
A: 0.316 µM

Q: With `Cc1c(Cl)cccc1CNC(=O)[C@@H]1CCC(=O)N1C1CCC1` as the molecule, how does the IC50 read?
A: 0.0158 µM

Q: How did the IC50 turn out when `O=C1C(=O)N(c2cccc3ccccc23)CCN1Cc1c(F)cccc1Cl` was run?
A: 0.631 µM

Q: With `O=C1C(=O)N(c2cccc3ccccc23)CCN1Cc1ccc(F)cc1Cl` as the molecule, how does the IC50 read?
A: 0.0631 µM

Q: How did the IC50 turn out when `O=C(NCc1cccc(C(F)(F)F)c1Cl)[C@@H]1CCC(=O)N1C1CCC1` was run?
A: 0.002 µM

Q: `O=C(NCc1ccc(Cl)cc1Cl)[C@@H]1CCC(=O)N1C1CCC1` was tested. Which IC50 did it give?
A: 0.00501 µM

Q: Which IC50 does the source give for `O=C(NCc1ccc(F)c(F)c1Cl)[C@@H]1CCC(=O)N1C1CCC1` here?
A: 0.01 µM

Q: For `O=C(NCc1cccc(Cl)c1Cl)[C@@H]1CCC(=O)N1C1CCC1`, which IC50 is on record?
A: 0.0126 µM

Q: With `Cc1c(CNC(=O)[C@@H]2CCC(=O)N2C2CCC2)cccc1C(F)(F)F` as the molecule, how does the IC50 read?
A: 0.00316 µM

Q: `CCN1[C@H](C(=O)NCc2ccc(F)c(F)c2F)CCCS1(=O)=O` was tested. Which IC50 did it give?
A: 0.631 µM

Q: `CC(C)CN1[C@H](C(=O)NCc2ccc(Cl)cc2Cl)CCS1(=O)=O` was tested. Which IC50 did it give?
A: 0.158 µM

Q: Which IC50 does the source give for `CC(C)CN1[C@H](C(=O)NCc2ccc(F)cc2Cl)CCS1(=O)=O` here?
A: 0.501 µM

Q: With `CN1C[C@@H](C(=O)NCc2ccc(F)c(F)c2Cl)N(C)C1=O` as the molecule, how does the IC50 read?
A: 0.00316 µM

Q: Which IC50 does the source give for `O=C(NCc1ccc(Cl)cc1Cl)[C@H]1CCC(=O)N1Cc1cccnc1` here?
A: 0.0631 µM

Q: Which IC50 does the source give for `O=C(NCc1cccc(C(F)(F)F)c1Cl)[C@H]1CCC(=O)N1Cc1cccnc1` here?
A: 0.0501 µM

Q: For `Cc1cnn(C)c1CC(=O)NCc1ccc(F)c(F)c1Cl`, which IC50 is on record?
A: 0.0316 µM

Q: Which IC50 does the source give for `CCN1C(=O)CC[C@H]1C(=O)NCc1ccccc1C#N` here?
A: 0.631 µM

Q: With `CCN1C(=O)CC[C@H]1C(=O)NCc1cccc(C(F)(F)F)c1C#N` as the molecule, how does the IC50 read?
A: 0.00316 µM

Q: `C[C@H]1CC(=O)N(C)[C@@H]1C(=O)NCc1cccc(C(F)(F)F)c1Cl` was tested. Which IC50 did it give?
A: 0.1 µM
